Test results from PMC11002996 (Journal of medicinal chemistry, 2023).

How the values were obtained:
priming by LPS (TNF-α) = experiment: LPS priming step, TNF-α in J774A.1 culture media by ELISA; format: cell-based, mouse; conditions: concentrations ≤ 3 μM
NLRC4 inflammasome = NLRC4 inflammasome (Mus musculus, UniProt Q3UP24); experiment: Inhibition of NLRC4 inflammasome; format: cell-based; conditions: LPS 1 μg/mL, flagellin 1 μg/mL 6 h; 1 at 3 and 10 μM, 8 at 10 μM
AIM2 inflammasome = biological target: T1, AIM2 inflammasome (Mus musculus, UniProt Q91VJ1); experiment: Inhibition of AIM2 inflammasome; format: cell-based; conditions: LPS 1 μg/mL, poly(dA:dT) 4 μg/mL 4 h; 1 at 3 and 10 μM, 8 at 10 μM
T1 sequence (Q91VJ1 1-354): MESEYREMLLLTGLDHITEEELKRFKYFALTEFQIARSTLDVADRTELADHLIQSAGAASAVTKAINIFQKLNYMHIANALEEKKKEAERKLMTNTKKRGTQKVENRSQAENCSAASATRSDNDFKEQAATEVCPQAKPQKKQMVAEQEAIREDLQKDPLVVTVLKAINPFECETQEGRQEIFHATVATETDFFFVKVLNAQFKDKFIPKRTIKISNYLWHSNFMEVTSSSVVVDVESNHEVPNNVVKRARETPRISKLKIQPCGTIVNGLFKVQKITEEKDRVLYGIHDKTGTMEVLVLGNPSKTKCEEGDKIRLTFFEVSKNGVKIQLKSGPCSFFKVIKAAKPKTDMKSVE

NLRP3 inflammasome [1] = biological target: NLRP3 inflammasome (Mus musculus, UniProt Q8R4B8); conditions: IL-1β release, LPS/ATP
[2] = earlier work of the authors; cited from earlier work
AD animal models = conditions: cited from earlier work
NLRP3 inflammasome [3] = conditions: read-out: IC50 (potency as NLRP3 inhibitor); cited from earlier work
[4] = biological target: human recombinant NLRP3 protein; conditions: cited from earlier work

Sequence of NLRP3 inflammasome (Mus musculus, UniProt Q8R4B8) (Q8R4B8 whole entry): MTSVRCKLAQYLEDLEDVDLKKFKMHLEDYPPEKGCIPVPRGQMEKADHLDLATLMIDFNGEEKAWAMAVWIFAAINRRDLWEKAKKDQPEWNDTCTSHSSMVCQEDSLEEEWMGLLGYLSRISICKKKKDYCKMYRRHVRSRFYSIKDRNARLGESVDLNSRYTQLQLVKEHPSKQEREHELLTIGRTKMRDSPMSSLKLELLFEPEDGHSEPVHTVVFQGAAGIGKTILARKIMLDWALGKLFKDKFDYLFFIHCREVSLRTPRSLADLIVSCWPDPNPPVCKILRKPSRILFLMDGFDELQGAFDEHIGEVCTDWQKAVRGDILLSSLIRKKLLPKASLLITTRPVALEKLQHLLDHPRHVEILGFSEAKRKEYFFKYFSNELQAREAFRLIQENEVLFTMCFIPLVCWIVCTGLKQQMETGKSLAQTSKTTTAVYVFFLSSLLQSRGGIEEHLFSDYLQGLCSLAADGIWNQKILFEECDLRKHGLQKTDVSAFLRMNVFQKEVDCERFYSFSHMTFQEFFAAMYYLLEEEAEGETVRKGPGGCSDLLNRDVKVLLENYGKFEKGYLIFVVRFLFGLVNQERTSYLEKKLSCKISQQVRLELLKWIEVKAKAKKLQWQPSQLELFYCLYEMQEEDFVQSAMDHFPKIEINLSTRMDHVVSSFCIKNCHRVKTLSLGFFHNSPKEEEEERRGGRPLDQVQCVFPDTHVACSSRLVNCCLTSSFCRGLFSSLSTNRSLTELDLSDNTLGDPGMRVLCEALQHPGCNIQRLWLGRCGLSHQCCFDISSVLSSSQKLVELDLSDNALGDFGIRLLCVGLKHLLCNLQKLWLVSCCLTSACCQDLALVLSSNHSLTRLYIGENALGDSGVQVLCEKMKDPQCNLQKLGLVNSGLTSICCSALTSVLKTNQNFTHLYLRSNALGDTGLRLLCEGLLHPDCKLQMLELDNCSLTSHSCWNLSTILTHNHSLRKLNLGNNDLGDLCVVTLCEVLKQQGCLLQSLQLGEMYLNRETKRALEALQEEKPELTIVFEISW
Sequence of NLRC4 inflammasome (Q3UP24 whole entry): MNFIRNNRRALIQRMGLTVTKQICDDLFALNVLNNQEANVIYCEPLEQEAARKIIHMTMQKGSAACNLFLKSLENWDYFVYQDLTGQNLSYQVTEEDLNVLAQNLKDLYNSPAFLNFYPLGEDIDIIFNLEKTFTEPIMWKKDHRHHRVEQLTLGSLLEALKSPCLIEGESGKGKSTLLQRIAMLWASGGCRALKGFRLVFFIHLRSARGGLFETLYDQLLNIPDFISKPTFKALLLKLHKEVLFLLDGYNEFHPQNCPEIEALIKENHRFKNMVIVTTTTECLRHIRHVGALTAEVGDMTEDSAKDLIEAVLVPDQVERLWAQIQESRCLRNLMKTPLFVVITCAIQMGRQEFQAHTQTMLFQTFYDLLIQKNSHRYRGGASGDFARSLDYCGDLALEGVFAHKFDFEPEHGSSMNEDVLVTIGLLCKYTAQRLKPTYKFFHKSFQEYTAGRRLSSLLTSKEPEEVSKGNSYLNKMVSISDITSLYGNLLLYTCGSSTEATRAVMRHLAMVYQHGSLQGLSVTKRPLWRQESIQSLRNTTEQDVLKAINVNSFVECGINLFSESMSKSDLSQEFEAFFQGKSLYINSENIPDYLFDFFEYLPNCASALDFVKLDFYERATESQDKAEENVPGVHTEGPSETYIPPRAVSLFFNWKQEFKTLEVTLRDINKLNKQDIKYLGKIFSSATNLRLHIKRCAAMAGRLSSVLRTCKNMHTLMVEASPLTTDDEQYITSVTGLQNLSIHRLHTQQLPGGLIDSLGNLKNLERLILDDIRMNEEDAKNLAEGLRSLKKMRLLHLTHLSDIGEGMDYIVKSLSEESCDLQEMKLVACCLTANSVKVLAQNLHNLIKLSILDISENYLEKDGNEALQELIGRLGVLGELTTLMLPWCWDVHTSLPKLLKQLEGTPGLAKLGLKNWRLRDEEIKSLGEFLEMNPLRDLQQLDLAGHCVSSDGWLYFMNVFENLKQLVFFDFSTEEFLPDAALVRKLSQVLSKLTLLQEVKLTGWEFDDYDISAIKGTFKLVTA

## CCCOc1ccc(Cl)cc1Cn1cc(-c2ccccc2)nn1 [Compound 1, 1-(5-chloro-2-propoxybenzyl)-4-phenyl-1H-1,2,3-triazole]
Priming by LPS (TNF-α)
  interference with the priming by LPS: did not show interference
NLRC4 inflammasome
  inhibition of the NLRC4 inflammasome: only observed for the NLRC4 and AIM2 inflammasomes at higher concentrations
AIM2 inflammasome
  inhibition of the AIM2 inflammasome: only observed for the NLRC4 and AIM2 inflammasomes at higher concentrations

## CCCOc1ccc(Cl)cc1Cn1cc(-c2ccc(S(N)(=O)=O)cc2)nn1 [Compound 2, 4-(1-(5-chloro-2-propoxybenzyl)-1H-1,2,3-triazol-4-yl)benzenesulfonamide]
NLRP3 inflammasome [1]
  inhibitory potency compared to 1: comparable potency

## CCCOc1ccc(Cl)cc1Cn1cc(-c2ccc(C(=O)O)cc2)nn1 [Compound 7, 4-(1-(5-chloro-2-propoxybenzyl)-1H-1,2,3-triazol-4-yl)benzoic acid]
NLRP3 inflammasome [1]
  lower potency compared to 6: ~ 10 fold

## COC(=O)c1ccc(-c2cn(Cc3cc(Cl)ccc3OC)nn2)cc1 [Compound 8, Methyl 4-(1-(5-chloro-2-methoxybenzyl)-1H-1,2,3-triazol-4-yl)benzoate]
NLRC4 inflammasome
  inhibition of the NLRC4 inflammasome: did not show inhibitory effects
AIM2 inflammasome
  inhibition of the AIM2 inflammasome: did not show inhibitory effects

## COC(=O)c1cccc(-c2cn(Cc3cc(Cl)ccc3OC)nn2)c1 [Compound 11, Methyl 3-(1-(5-chloro-2-methoxybenzyl)-1H-1,2,3-triazol-4-yl)benzoate]
NLRP3 inflammasome [1]
  inhibitory potency compared to 8: decrease of inhibitory potency

## COc1ccc(Cl)cc1Cn1cc(-c2ccc(C(=O)O)cc2)nn1 [Compound 12, 4-(1-(5-chloro-2-methoxybenzyl)-1H-1,2,3-triazol-4-yl)benzoic acid]
NLRP3 inflammasome [1]
  inhibitory potency compared to 8: significantly less potent

## CNC(=O)c1ccc(-c2cn(Cc3cc(Cl)ccc3OC)nn2)cc1 [Compound 13, 4-(1-(5-chloro-2-methoxybenzyl)-1H-1,2,3-triazol-4-yl)-N-methylbenzamide]
NLRP3 inflammasome [1]
  inhibitory potency compared to 8: decreased inhibitory potency

## COc1ccc(Cl)cc1Cn1cc(-c2ccc(C(=O)N3CCC3)cc2)nn1 [Compound 14, Azetidin-1-yl(4-(1-(5-chloro-2-methoxybenzyl)-1H-1,2,3-triazol-4-yl)phenyl)methanone]
NLRP3 inflammasome [1]
  inhibitory potency compared to 8: decreased inhibitory potency

## COC(=O)c1ccc(-c2cn(Cc3cc(Cl)ccc3OC)nn2)c(C)c1 [Compound 15, Methyl 4-(1-(5-chloro-2-methoxybenzyl)-1H-1,2,3-triazol-4-yl)-3-methylbenzoate]
NLRP3 inflammasome [1]
  decrease in inhibitory potency compared to 8: 3–4 fold

## COC(=O)c1ccc(-c2cn(Cc3cc(Cl)ccc3OC)nn2)c(F)c1 [Compound 16, Methyl 4-(1-(5-chloro-2-methoxybenzyl)-1H-1,2,3-triazol-4-yl)-3-fluorobenzoate]
NLRP3 inflammasome [1]
  decrease in inhibitory potency compared to 8: 3–4 fold

## COC(=O)c1ccc(-c2cn(Cc3ccccc3)nn2)cc1 [Compound 24, Methyl 4-(1-benzyl-1H-1,2,3-triazol-4-yl)benzoate]
NLRP3 inflammasome [1]
  inhibitory potency compared to 8: ~3–7-fold decrease or complete loss of potency

## COC(=O)c1ccc(-c2cn(Cc3ccccc3OC)nn2)cc1 [Compound 25, Methyl 4-(1-(2-methoxybenzyl)-1H-1,2,3-triazol-4-yl)benzoate]
NLRP3 inflammasome [1]
  inhibitory potency compared to 8: ~3–7-fold decrease or complete loss of potency

## COC(=O)c1ccc(-c2cn(Cc3cccc(Cl)c3)nn2)cc1 [Compound 26, Methyl 4-(1-(3-chlorobenzyl)-1H-1,2,3-triazol-4-yl)benzoate]
NLRP3 inflammasome [1]
  inhibitory potency compared to 8: ~3–7-fold decrease or complete loss of potency

## COC(=O)c1ccc(-c2cn(Cc3cc(Cl)ccc3O)nn2)cc1 [Compound 27, Methyl 4-(1-(5-chloro-2-hydroxybenzyl)-1H-1,2,3-triazol-4-yl)benzoate]
NLRP3 inflammasome [1]
  decrease in inhibitory potency compared to 8: ~ 5 fold

## COC(=O)c1ccc(-c2cn(Cc3cc(Cl)cc(OC)c3)nn2)cc1 [Compound 28, Methyl 4-(1-(3-chloro-5-methoxybenzyl)-1H-1,2,3-triazol-4-yl)benzoate]
NLRP3 inflammasome [1]
  inhibitory potency compared to 8: comparable potency

## COC(=O)c1ccc(-c2cn(Cc3cc(F)ccc3OC)nn2)cc1 [Compound 32, Methyl 4-(1-(5-fluoro-2-methoxybenzyl)-1H-1,2,3-triazol-4-yl)benzoate]
NLRP3 inflammasome [1]
  decrease in inhibitory potency compared to 8: 2–3 fold

## COC(=O)c1ccc(-c2cn(Cc3cc(Br)ccc3OC)nn2)cc1 [Compound 33, Methyl 4-(1-(5-bromo-2-methoxybenzyl)-1H-1,2,3-triazol-4-yl)benzoate]
NLRP3 inflammasome [1]
  decrease in inhibitory potency compared to 8: 2–3 fold

## COC(=O)c1ccc(-c2cn(Cc3cc(C(F)(F)F)ccc3OC)nn2)cc1 [Compound 34, Methyl 4-(1-(2-methoxy-5-(trifluoromethyl)benzyl)-1H-1,2,3-triazol-4-yl)benzoate]
NLRP3 inflammasome [1]
  inhibitory potency compared to 8: comparable potency

## CNS(=O)(=O)c1ccc(CCNC(=O)c2cc(Cl)ccc2OC)cc1 [JC124]
[2]
  metabolism / metabolic stability in mouse liver microsomes: relatively better metabolic stability
AD animal models
  in vivo efficacy: in vivo efficacy

## C#CCNS(=O)(=O)c1ccc(CCN(Cc2cc(Cl)ccc2OCCC)C(=O)Cc2ccsc2)cc1 [YQ128]
[2]
  metabolism / metabolic stability in mouse liver microsomes: rapid metabolism
NLRP3 inflammasome [3]
  IC50: 300 ± 10 nM
[4]
  Kd: 117 nM
